Marks after values point to notes of the source that are not given here.
Legend:
[1] = Hypotensive effect in pentobarbital-anesthetized male rats after i.v. injection; details: 0.05 mg/kg i.v.
Experimental: (§3) On the ordinate, the response is given in units of integrated blood pressure observed over a 100 minute period after the intravenous injection of the test substance is pentobarbital-anesthetized rats (no. of animals=8 per group per dose). The area-under-curve, is given in units of mm Hg per minute.

Walker carcinosarcoma = assay: Growth of subcutaneously transplanted Walker carcinosarcoma in rats (tumor volume); assay type: in vivo; details: 0.1 mg/kg
Experimental: (§1) This example illustrates the anti-cancer property of an inventive peptide with a D-amino acid as residue 20. Various tumor cells were transplanted into mice or rats and the tumor volume was measured using a caliper-ruler. The volume of the tumor, in cubic mm, was estimated as the long axis×the square of the short axis divided by 2.
(§2) The second experiment and third experiment (data shown in Tables 3 and 4) were conducted on white non-inbred male rats with a subcutaneous transplant of Walker carcinosarcoma or Ehrlich solid carcinoma. Animals after transplantation of tumors were mixed and were divided into groups of controls, CRH-treated and [D-Glu^20] CRH-treated.

W256 cells = details: in vitro; cited from earlier work
[2] = system: W256 rat mammary carcinoma; details: 100 micrograms/kg subcutaneously twice a day for 3 days; cited from earlier work
Ehrlich solid carcinoma = assay: Growth of subcutaneously transplanted Ehrlich solid carcinoma in rats (tumor volume); assay type: in vivo; details: 0.1 mg/kg
Experimental: as §1, §2

B16 melanoma = assay: Growth of subcutaneously transplanted B16 melanoma in mice (tumor volume by caliper); assay type: in vivo; details: 0.1 mg/kg s.c. on days 3 to 7
Experimental: as §1
In the experiment of Table 2, female mice, weighing 20-25 g, of a C57B1 line, were transplanted under the skin with B16 melanoma cells. After transplantation of tumors mice were mixed and divided into groups of controls, CRH-treated and [D-Glu^20] CRH-treated. The test substances at a dose of 0.1 mg/kg subcutaneously or the vehicle control (saline) was injected on days 3 to 7 after tumor transplantation, and the volume of tumors were measured at various days afterwards.

[3] = in vivo, iv
Experimental: as §3

hypotensive activity compared with unmodified CRH (human/rat) control [3]	Compound	average fall in mean blood pressure over a 100 minute period [1] [mm Hg]	integrated blood pressure response (area-under-curve) over a 100 minute period [1]	Volume of Tumors (Walker carcinosarcoma; day 7 after transplantation) [mm^3]	Volume of Tumors (Walker carcinosarcoma; day 10 after transplantation) [mm^3]	Volume of Tumors (Walker carcinosarcoma; day 12 after transplantation) [mm^3]	Volume of Tumors (Walker carcinosarcoma; day 14 after transplantation) [mm^3]	antiproliferative effects in W256 cell cultures (W256 cells)	inhibition of growth of intracerebrally-injected W256 tumor cells [2]	Volume of Tumors (Ehrlich solid carcinoma; day 9 after transplantation)	Volume of Tumors (Ehrlich solid carcinoma; day 11 after transplantation)	Volume of Tumors (Ehrlich solid carcinoma; day 14 after transplantation)	Volume of Tumors (B16 melanoma; day 10 after transplantation)	Volume of Tumors (B16 melanoma; day 12 after transplantation)	Volume of Tumors (B16 melanoma; day 14 after transplantation)	Volume of Tumors (B16 melanoma; day 17 after transplantation)
	hCRH: unmodified human/rat corticotropin-releasing hormone, 41-residue C-terminally amidated peptide, SEQ ID NO 1	72	approximately 7200 mm Hg-min	196	3600 ± 413	6942	10832	antiproliferative effects	significant inhibition of growth	226 ± 14* mm^3	384 ± 61* mm^3	763 ± 114* mm^3	29 + 7* mm^3	157 + 23* mm^3	133 + 15* mm^3	238 + 41 mm^3
much less hypotensive activity	CC[C@H](C)[C@H](NC(=O)[C@@H](NC(=O)[C@H](CCC(=O)O)NC(=O)[C@H](CCSC)NC(=O)[C@H](CC(C)C)NC(=O)[C@H](CCCCN)NC(=O)[C@H](CCCNC(=N)N)NC(=O)[C@H](CC(N)=O)NC(=O)[C@H](CO)NC(=O)[C@H](Cc1c[nH]cn1)NC(=O)[C@H](C)NC(=O)[C@H](CCC(N)=O)NC(=O)[C@H](CCC(N)=O)NC(=O)[C@H](C)NC(=O)[C@H](CC(C)C)NC(=O)[C@H](CCC(N)=O)NC(=O)[C@H](CCC(=O)O)NC(=O)[C@H](C)NC(=O)[C@H](CCCNC(=N)N)NC(=O)[C@H](C)NC(=O)[C@H](CCSC)NC(=O)[C@@H](CCC(=O)O)NC(=O)[C@H](CC(C)C)NC(=O)[C@@H](NC(=O)[C@H](CCC(=O)O)NC(=O)[C@H](CCCNC(=N)N)NC(=O)[C@H](CC(C)C)NC(=O)[C@H](CC(C)C)NC(=O)[C@H](Cc1c[nH]cn1)NC(=O)[C@H](Cc1ccccc1)NC(=O)[C@@H](NC(=O)[C@H](CC(C)C)NC(=O)[C@H](CC(=O)O)NC(=O)[C@H](CC(C)C)NC(=O)[C@H](CO)NC(=O)[C@@H](NC(=O)[C@@H]1CCCN1C(=O)[C@@H]1CCCN1C(=O)[C@H](CCC(=O)O)NC(=O)[C@H](CCC(=O)O)NC(=O)[C@@H](N)CO)[C@@H](C)CC)[C@@H](C)O)C(C)C)[C@@H](C)CC)C(N)=O [[D-Glu^20] CRH]															
